Test system: purified human astrocytes
Assay: Calcium imaging of purified human astrocytes (Fluo-4 AM) after ATP or glutamate stimulation
Type: cell-based
Conditions: for calcium response (increased intracellular calcium concentrations): 30 nM-670 μM
Protocol: Therefore, we performed calcium imaging on purified human astrocytes after loading cells grown in vitro with the calcium sensitive dye Fluo-4 AM.
Calcium imaging. Purified human astrocytes were plated at 100,000 cells/imaging chamber (MatTek, P35GC-1.0-14-C) coated with poly-d-lysine. Cells were grown for at least 5 days before imaging. Cells were incubated for 15 minutes with 2 μM Fluo 4 AM (Invitrogen, F-14201) and then washed 3 times with PBS and replaced with 1.5 ml of growth medium per chamber. The cells were then let to recover from mechanical stimulation for 3 minutes and then imaged in a humidified, temperature-controlled chamber with a 40× oil objective. Images were taken at 0.7 s intervals and analyzed with ImageJ.

Row | SMILES | calcium response (increased intracellular calcium concentrations) (fetal human astrocytes) | temporal pattern of calcium response (postnatal human astrocytes) | calcium response (increased intracellular calcium concentrations) (postnatal human astrocytes) | time for intracellular calcium to decrease to baseline levels (postnatal human astrocytes, independent of concentration) [s]
1 | Nc1ncnc2c1ncn2[C@@H]1O[C@H](COP(=O)(O)OP(=O)(O)OP(=O)(O)O)[C@@H](O)[C@H]1O [ATP] | responded | asynchronous oscillatory response | responded to both | 
2 | N[C@@H](CCC(=O)O)C(=O)O [glutamate] |  | synchronous non-oscillatory response | responded to both | ≤ 10

From patent US10093898B2, “Purification of functional human astrocytes” (The Board of Trustees of the Leland Stanford Junior …, priority 2015, dated 2018)
